In ChEMBL document CHEMBL1158048, “19-Nor- and 18,20-epoxy-cardenolides from the leaves of Calotropis gigantea” (J Nat Prod, 2006):
Active and inactive are the calls of the source. The calls are words filed in the database; no cut-off is given here.

Tests used:
Plasmodium falciparum = assay: Antimalarial activity after 48 hrs against multidrug-resistant Plasmodium falciparum K1; type: functional, organism-based
KB [1] = assay: Cytotoxicity against human KB cells by SRB assay; type: functional, cell-based
[2] = Cytotoxicity against human BC cells by SRB assay; type: functional, cell-based
NCI-H187 [3] = assay: Cytotoxicity against human NCI-H187 cells by SRB assay; type: functional, cell-based
KB [4] = assay: Cytotoxicity against human KB cells at 20 ug/ml by SRB assay; type: functional, cell-based
NCI-H187 [5] = assay: Cytotoxicity against human NCI-H187 cells at 20 ug/ml by SRB assay; type: functional, cell-based
BC = assay: Cytotoxicity against human BC cells at 20 ug/ml by SRB assay; type: functional, cell-based

SMILES	Activity (Plasmodium falciparum)	IC50 (KB [1]) [nM]	IC50 [2] [nM]	IC50 (NCI-H187 [3]) [nM]	Activity (KB [4])	Activity (NCI-H187 [5])	Activity (BC)
C[C@]12CC[C@H](O)C[C@H]1CC[C@@H]1[C@@H]2CC[C@]2(C)[C@@H](C3=CC(=O)OC3)CC[C@]12O [DIGITOXIGENIN]	inactive	9610	8950	9770	–	–	–
C[C@@H]1C[C@H](O)[C@]2(O)O[C@@H]3C[C@@]4(C=O)[C@@H](CC[C@@H]5[C@@H]4CC[C@]4(C)[C@@H](C6=CC(=O)OC6)C[C@@H](O)[C@]54O)C[C@H]3O[C@@H]2O1	–	602	547	3330	–	–	–
Cc1c2ccncc2c(C)c2c1[nH]c1ccccc12 [ELLIPTECINE]	–	812	682	2230	–	–	–
COC(=O)[C@@]1(O)C[C@@H](C)O[C@H]1O[C@@H]1C[C@@H]2CC[C@@H]3[C@H](CC[C@]4(C)[C@@H](C5=CC(=O)OC5)CC[C@]34O)[C@@]2(C(=O)O)C[C@H]1O	–	–	–	–	inactive	inactive	inactive
COC(=O)[C@@]1(O)C[C@@H](C)O[C@H]1O[C@@H]1C[C@@H]2CC[C@@H]3[C@H](CC[C@]4(C)[C@@H](C5=CC(=O)OC5)CC[C@]34O)[C@@]2(C=O)C[C@H]1O [CALACTINICACID METHYL ESTER]	–	3730	5650	14400	–	–	–
C[C@@H]1C[C@H](O)[C@]2(O)O[C@@H]3C[C@@]4(C=O)[C@@H](CC[C@@H]5[C@@H]4CC[C@]4(C)[C@@H](C6=CC(=O)OC6)CC[C@]54O)C[C@H]3O[C@@H]2O1 [CALOTROPIN]	inactive	62	41.3	471	–	–	–
C[C@@H]1C[C@H](O)[C@]2(O)O[C@@H]3C[C@@]4(C=O)[C@@H](CC[C@@H]5[C@@H]4CC[C@]46CO[C@]7(COC(=O)C7)[C@H]4CC[C@]56O)C[C@H]3O[C@@H]2O1	–	1290	2210	3640	–	–	–
COc1cccc2c1C(=O)c1c(O)c3c(c(O)c1C2=O)C[C@@](O)(C(=O)CO)C[C@@H]3O[C@H]1C[C@H](N)[C@H](O)[C@H](C)O1 [DOXORUBICIN]	–	219	288	40.5	–	–	–
C[C@@H]1C[C@@H](O)[C@]2(O)O[C@@H]3C[C@@]4(C=O)[C@@H](CC[C@@H]5[C@@H]4CC[C@]4(C)[C@@H](C6=CC(=O)OC6)CC[C@]54O)C[C@H]3O[C@@H]2O1 [CALACTIN]	inactive	41.3	20.7	345	–	–	–
